Some test systems named below: ACHN; MOLT-4; RXF 393; HCT-15; A498; Malme-3M; A549; CCRF-CEM; NCI-H23; 786-0; OVCAR-3; SNB-19; HOP-62; U-251; OVCAR-4; K562; MDA-MB-435; Hs-578T.
What all share (assay): DTP human tumour cell line panel, 48 h

Twelve compounds from ChEMBL document CHEMBL1201862, “PubChem BioAssay data set” (2004) can be followed below.

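Five compound concentrations were applied to cells in 96-well plates for 48 hours; endpoints were derived by simple linear interpolation of the resulting dose-response curve. GI50 marks 50% less growth.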 The source made the active and inactive calls. Cut-off read from the data, not from the text of the source: active = GI50 up to about 1.1 µM and inactive = higher.

By GI50 is commonly meant the concentration giving 50% growth inhibition. Consider `N#C/C(=C\c1c(O)cc(O)cc1O)C(N)=O`, for which the GI50 was > 100 µM (inactive) in the experiment on ACHN; > 100 µM (inactive) in the experiment with MOLT-4; > 100 µM (inactive) in the experiment with RXF 393; over 100 µM in the experiment on HCT-15; > 100 µM (inactive) with A498; > 100 µM (inactive) with Malme-3M. Besides, the GI50 with A549, with CCRF-CEM, in the experiment with NCI-H23, in the experiment with 786-0, with OVCAR-3 and in the experiment with SNB-19 was > 100 µM (inactive) each time. Also, the GI50 in the experiment on HOP-62, in the experiment on U-251, with OVCAR-4 and with K562 was > 100 µM (inactive) each time.

Turning to `Cc1c(C(=O)CC(=O)C(=O)Nc2ccc(Cl)c(Cl)c2)[n+]([O-])c2ccccc2[n+]1[O-]`, the GI50 was 20.3 µM (inactive) in the experiment with ACHN; 20.8 µM (inactive) in the experiment on MOLT-4; 27.4 µM (inactive) with RXF 393; 20.5 µM with HCT-15; > 100 µM (inactive) with A498; 18.8 µM (inactive) with Malme-3M. For the same compound, the GI50 was 27 µM (inactive) with A549; 17.2 µM (inactive) with CCRF-CEM; 28.6 µM (inactive) in the experiment with NCI-H23; 25.8 µM (inactive) in the experiment with 786-0; 2.42 µM (inactive) in the experiment with OVCAR-3; 27 µM (inactive) with SNB-19. The GI50 with HOP-62 was 64.4 µM (inactive); in the experiment on U-251, 26.8 µM (inactive); in the experiment on OVCAR-4, 15.2 µM (inactive); in the experiment with K562 it was 23.8 µM (inactive).

For the compound `COCNC(=NC#N)NCOC`, the GI50 in the experiment with ACHN is > 100 µM (inactive); in the experiment on MOLT-4 it was > 100 µM (inactive); in the experiment on RXF 393, > 42 µM (inactive); with HCT-15, over 42.9 µM; in the experiment on A498, > 100 µM (inactive); in the experiment with Malme-3M it was > 100 µM (inactive). For the same compound, the GI50 is > 71.9 µM (inactive) in the experiment with A549; > 100 µM (inactive) with CCRF-CEM; > 100 µM (inactive) in the experiment on NCI-H23; > 47.2 µM (inactive) in the experiment on 786-0; > 100 µM (inactive) in the experiment on OVCAR-3; > 100 µM (inactive) in the experiment on SNB-19. For the same compound, the GI50 with HOP-62 is > 100 µM (inactive); in the experiment on U-251, > 58.5 µM (inactive); in the experiment with OVCAR-4, > 100 µM (inactive); in the experiment on K562 it was > 64.6 µM (inactive).

Regarding `O=C1CCCC2COc3ccc(O)c1c32` (stereo unspecified), the GI50 with ACHN is > 100 µM (inactive); in the experiment on MOLT-4, > 100 µM (inactive); in the experiment on RXF 393, > 100 µM (inactive); in the experiment with HCT-15, over 100 µM; in the experiment on A498 it was > 100 µM (inactive); in the experiment on Malme-3M, > 100 µM (inactive). For the same compound, the GI50 in the experiment with A549, in the experiment with CCRF-CEM, in the experiment with NCI-H23, with 786-0, with OVCAR-3 and with SNB-19 was > 100 µM (inactive) in each case. The GI50 with HOP-62, in the experiment on U-251, with OVCAR-4 and in the experiment on K562 was > 100 µM (inactive) each time.

On to `COC(=O)CC(NC(=O)OCc1ccccc1)C(C(=O)OCc1ccccc1)C1(C)OCCO1` (stereo unspecified), for which the GI50 in the experiment on ACHN was 34.9 µM (inactive); with MOLT-4 it was 20.5 µM (inactive); in the experiment on RXF 393, 21.4 µM (inactive); in the experiment on HCT-15, 37.8 µM; with A498, 18.2 µM (inactive); with Malme-3M, 33.3 µM (inactive). The GI50 in the experiment on A549 is 32.4 µM (inactive); in the experiment on CCRF-CEM, 26.6 µM (inactive); with NCI-H23, 26.4 µM (inactive); in the experiment with 786-0, 51.4 µM (inactive); in the experiment on OVCAR-3, 53.8 µM (inactive); in the experiment on SNB-19, 50 µM (inactive). For the same compound, the GI50 with HOP-62 was 47.5 µM (inactive); in the experiment on U-251 it was 33.1 µM (inactive); in the experiment with OVCAR-4, 67.6 µM (inactive); in the experiment with K562, 43.4 µM (inactive).

Take `CCOC(=O)c1c(N)n(-c2ccccc2)c(=O)n(-c2ccccc2)c1=O`: the GI50 in the experiment on ACHN was > 100 µM (inactive); with MOLT-4 it was > 100 µM (inactive); in the experiment with RXF 393 it was > 100 µM (inactive); with HCT-15, over 100 µM; with Malme-3M it was > 100 µM (inactive); in the experiment on A549 it was > 100 µM (inactive). Further, the GI50 in the experiment on CCRF-CEM is > 10 µM (inactive); in the experiment with NCI-H23 it was > 100 µM (inactive); with 786-0 it was > 100 µM (inactive); with MDA-MB-435, > 100 µM (inactive); in the experiment on Hs-578T, > 100 µM (inactive); in the experiment with OVCAR-3, > 100 µM (inactive). Moreover, the GI50 in the experiment on SNB-19, in the experiment with U-251, in the experiment with OVCAR-4 and in the experiment with K562 was > 100 µM (inactive) each time.

Regarding `Cc1cc(Cl)cc2c1NC(=O)C2(O)CC(=O)c1ccc(Br)cc1` (stereo unspecified), the GI50 in the experiment with ACHN was 39.4 µM (inactive); with MOLT-4 it was 20.5 µM (inactive); with RXF 393, 21.8 µM (inactive); in the experiment with HCT-15, 57 µM; with A498, 37.8 µM (inactive); with Malme-3M, > 100 µM (inactive). For the same compound, the GI50 with A549 was > 100 µM (inactive); in the experiment with CCRF-CEM, 18.6 µM (inactive); with NCI-H23 it was 43.4 µM (inactive); with 786-0, 38.2 µM (inactive); in the experiment with OVCAR-3 it was 63 µM (inactive); in the experiment with SNB-19 it was 71 µM (inactive). Besides, the GI50 in the experiment with HOP-62 was > 100 µM (inactive); in the experiment on U-251 it was 79.4 µM (inactive); in the experiment with OVCAR-4 it was 14.2 µM (inactive); in the experiment on K562, 21.6 µM (inactive).

As to `Cc1no[n+]([O-])c1/C=N/NS(=O)(=O)c1ccccc1`, the GI50 was > 100 µM (inactive) with MOLT-4; > 100 µM (inactive) with RXF 393; over 100 µM with HCT-15; 75.3 µM (inactive) in the experiment with A498; > 100 µM (inactive) in the experiment with Malme-3M; > 100 µM (inactive) with A549. In addition, the GI50 is > 10 µM (inactive) with CCRF-CEM; > 100 µM (inactive) with NCI-H23; > 100 µM (inactive) in the experiment on 786-0; > 100 µM (inactive) in the experiment on OVCAR-3; > 100 µM (inactive) with SNB-19; > 100 µM (inactive) in the experiment with HOP-62. Also, the GI50 in the experiment on U-251, in the experiment on OVCAR-4 and in the experiment on K562 was > 100 µM (inactive) each time.

For the compound `O/N=C1/C(=C/c2ccc(Cl)c(Cl)c2)CCCC1C(NO)c1ccc(Cl)c(Cl)c1` (stereo unspecified), the GI50 is 18.4 µM (inactive) with ACHN; 12.5 µM (inactive) in the experiment with MOLT-4; 19.7 µM (inactive) in the experiment on RXF 393; 16.8 µM in the experiment with HCT-15; 14.4 µM (inactive) in the experiment with A498; 20 µM (inactive) in the experiment on Malme-3M. Further, the GI50 is 17.2 µM (inactive) with A549; 17.2 µM (inactive) in the experiment with CCRF-CEM; 17.3 µM (inactive) in the experiment on NCI-H23; 19.5 µM (inactive) in the experiment on 786-0; 14.7 µM (inactive) in the experiment on OVCAR-3; 17.6 µM (inactive) with SNB-19. Further, the GI50 was 20.1 µM (inactive) in the experiment on HOP-62, 17.9 µM (inactive) in the experiment on U-251, 12.9 µM (inactive) in the experiment on OVCAR-4 and 21.3 µM (inactive) in the experiment on K562.

On to `COc1ccc([N+]2=NC(c3ccc([N+](=O)[O-])cc3)=NN(c3ccccc3)C2)cc1.[O-][Cl+3]([O-])([O-])[O-]`, for which the GI50 was 86.5 µM (inactive) with ACHN; 31.8 µM (inactive) in the experiment with MOLT-4; 67.9 µM (inactive) in the experiment with RXF 393; 41.9 µM with HCT-15; > 100 µM (inactive) in the experiment with A498; > 100 µM (inactive) with Malme-3M. Also, the GI50 in the experiment on A549 was > 100 µM (inactive); with CCRF-CEM, 21.2 µM (inactive); in the experiment with NCI-H23 it was > 100 µM (inactive); in the experiment with 786-0, > 100 µM (inactive); in the experiment on OVCAR-3 it was 79.4 µM (inactive); with SNB-19 it was > 100 µM (inactive). For the same compound, the GI50 in the experiment on HOP-62 is > 100 µM (inactive); with U-251, 36.1 µM (inactive); with OVCAR-4, > 100 µM (inactive); in the experiment with K562, 28.1 µM (inactive).

Regarding `O=C1OC(=O)C([Se]c2ccccc2)=C1[Se]c1ccccc1`, the GI50 with ACHN was > 100 µM (inactive); in the experiment with MOLT-4, > 100 µM (inactive); in the experiment with RXF 393, > 100 µM (inactive); in the experiment on HCT-15, over 100 µM; in the experiment on A498 it was > 100 µM (inactive); with Malme-3M, > 100 µM (inactive). For the same compound, the GI50 is > 100 µM (inactive) with A549; > 100 µM (inactive) in the experiment on CCRF-CEM; 32.4 µM (inactive) in the experiment on NCI-H23; > 100 µM (inactive) in the experiment with 786-0; > 100 µM (inactive) in the experiment on OVCAR-3; > 100 µM (inactive) in the experiment with SNB-19. Also, the GI50 with HOP-62, in the experiment on U-251, in the experiment with OVCAR-4 and in the experiment with K562 was > 100 µM (inactive) each time.

For the compound `CC1(O)C(C)(O)C2(C)O[Te]3(OC12C)OC1(C)C(C)(O)C(C)(O)C1(C)O3` (stereo unspecified), the GI50 in the experiment on ACHN is 31.3 µM (inactive); in the experiment on MOLT-4, 11.8 µM (inactive); with RXF 393 it was 12.4 µM (inactive); in the experiment with HCT-15, 11.5 µM; in the experiment with A498 it was > 10 µM (inactive); in the experiment on Malme-3M it was 96.2 µM (inactive). Also, the GI50 in the experiment with A549 was 6.67 µM (inactive); with CCRF-CEM it was 2.41 µM (inactive); in the experiment with NCI-H23, 14.8 µM (inactive); in the experiment on 786-0 it was 56.8 µM (inactive); with OVCAR-3, 20.2 µM (inactive); in the experiment on SNB-19 it was 28.1 µM (inactive). Also, the GI50 is > 100 µM (inactive) in the experiment with HOP-62, 10.8 µM (inactive) with U-251, 24.3 µM (inactive) in the experiment on OVCAR-4 and 9.79 µM (inactive) in the experiment with K562.
